US7968526B2, “Antisense oligonucleotides directed to ribonucleotide reductase R2 and uses thereof in the treatment of cancer” (Lorus Therapeutics Inc., priority 2003, dated 2011)
“Also recorded” adds a separate entry of the source.

Key:
Assay type in all cases: in vivo, human cells in mice
[1] = tested on: Caki-1 human renal cancer cells; experiment: Caki-1 renal tumour xenograft, combination with 5-FU or vinblastin (1.3); details: Caki (renal), CD-1 mouse as printed; SEQ ID NO:1 10 mg/kg i.v. every other day; 5-FU 13 mg/kg/day i.p.; vinblastin 0.6 mg/kg/week i.p.
Text: All treatments were stopped at day 22. […] All treatments were stopped at day 32. […] All treatments were stopped at day 36.

[2] = tested on: A498 human kidney cancer cells; experiment: A498 kidney tumour xenograft in SCID mice, controls and chemotherapeutics (Example 7); details: oligonucleotides 10 mg/kg/2 days i.v., 5-FU 13 mg/kg/day×5, vinblastine 1 mg/kg/week, gemcitabine 100 mg/kg/week
Text: CD-1 athymic female nude mice, BALB/c nu/nu nude mice, SCID, and SCID beige mice were purchased from Charles River Laboratories (Montreal, Canada) and experiments were typically initiated when the mice were 6-7 weeks old. […] Each experimental group typically contained 10 mice. After the size of tumour reached a mean tumour volume of 50-100 mm^3, treatment was initiated. […] Anti-tumour activity was estimated by the measurement of tumour volume with a calliper at two-three day intervals. Tumour volume was calculated by a formula L×W×H/2, where L indicates length, W indicates width and H indicates height. Within 24 hours after the last treatment, the animals were sacrificed and tumour and body weights were measured. Results of statistical analyses of the data are presented as P values in the figure legends.
Three additional treatment groups received: 5-FU (13 mg/kg/day×5), vinblastine (1 mg/kg/week) and gemcitabine (100 mg/kg/week). […] Caliper measurements at 1-week intervals were used to calculate tumour volumes. Each point in FIG. 28C represents mean tumour volume calculated from 10 animals per experimental group (with the exception of SEQ ID NO: 1 which was 8 animals). […] After 54 days the mice were sacrificed and the A498 tumours weighed. Each bar represents the mean tumour weight and standard error calculated for each treatment group.

[3] = tested on: A2058 human melanoma cells; experiment: A2058 melanoma xenograft in CD-1 nude mice, combination with DTIC (1.6); details: A2058 (melanoma), CD-1; SEQ ID NO:1 10 mg/kg i.v. every other day; DTIC 80 mg/kg i.v. days 6-10
Experimental: After 52 days the mice were sacrificed and the tumours weighed. […] Mitoxantrone was administered intravenously once at the beginning of the treatments at a dose of 2 mg/kg (FIG. 4A) or once a week for four weeks at a reduced dose of 0.8 mg/kg (FIG. 4B). All treatments were stopped at day 50 (FIG. 4A) or 48 (FIG. 4B), respectively. […] Mitoxantrone was administered intravenously once at the beginning of the treatments at a dose of 2 mg/kg (FIG. 5A) or once a week for four weeks at a reduced dose of 0.8 mg/kg (FIG. 5B). All treatments were stopped at day 42 (FIG. 5A) or 38 (FIG. 5B), respectively. […] A2058 is a metastatic melanoma cell line. […] All treatments were stopped at day 24. […] Taxol was administered intravenously once a week at a dose of 10 mg/kg for three (FIG. 7A) or four weeks (FIG. 7C). Doxorubicin was administered intravenously once a week at a dose of 5 mg/kg for first three weeks (FIG. 7A) or for two weeks (FIG. 7C). All treatments were stopped at day 33 (FIG. 7A) or at day 26 (FIG. 7C), respectively. […] In FIG. 7C, antitumour activities were estimated by the inhibition of tumour volume, which was measured with calipers. Each point represents mean tumour volume calculated from 10 animals per experimental group. […] Taxol was administered intravenously once a week for first three weeks and intraperitoneally once a week for next two weeks at a dose of 10 mg/kg. Cisplatin was administered intravenously once a week for first three weeks and intraperitoneally once a week for next two weeks at a dose of 4 mg/kg. All treatments were stopped at day 40. Antitumour activities were estimated by the inhibition of tumour volume, which was measured with caliper. Each point represents mean tumour volume calculated from 9 animals per experimental group.

[4] = tested on: BxPC-3 human pancreatic carcinoma cells; experiment: BxPC-3 gemcitabine resistant pancreatic carcinoma xenograft in CD-1 nude mice; details: Gemcitabine 100 mg/kg i.v. every three days
Experimental: BxPC-3 is a gemcitabine resistant call line. […] Gemcitabine was administered intravenously every three days at a dose of 100 mg/kg. Antitumour activities were estimated by the inhibition of tumour volume, which was measured with caliper. Each point represents mean tumour volume calculated from 10 animals per experimental group. […] Hela S3 is a hydroxyurea resistant cell line. […] Hydroxyurea was administered intraperitoneally every day at a dose of 250 mg/kg for 10 days. Cisplatin was administered intravenously once a week for three weeks at a dose of 4 mg/kg. Antitumour activities were estimated by the inhibition of tumour volume, which was measured with caliper. Each point represents mean tumour volume calculated from 10 animals per experimental group. […] Cisplatin was administered intravenously once a week for three weeks at a dose of 4 mg/kg. Taxol was administered intravenously once a week for three weeks at a dose of 10 mg/kg. Antitumour activities were estimated by the inhibition of tumour volume, which was measured with caliper. Each point represents mean tumour volume calculated from 10 animals per experimental group. […] Taxol was administered i.p. once a week at a dose of 10 mg/kg. Antitumour activities were estimated by the inhibition of tumour volume (FIG. 12A), which was measured with calipers. Each point represents mean tumour volume calculated from 10 animals per experimental group. Animals were sacrificed and tumour weights taken at the end of the study (FIG. 12C). […] Cisplatin was administered intravenously once a week for four weeks at a dose of 4 mg/kg. Taxol was administered intravenously once a week for four weeks at a dose of 20 mg/kg. Antitumour activities were estimated by the inhibition of tumour volume, which was measured with caliper. Each point represents mean tumour volume calculated from 9-10 animals per experimental group. […] Cisplatin was administered intravenously once a week for four weeks at a dose of 4 mg/kg. Antitumour activities were estimated by the inhibition of tumour volume, which was measured with caliper. Each point represents mean tumour volume calculated from 10 animals per experimental group. At the end of the study the animals were sacrificed and tumours weighed. […] Taxol was administered i.p. once a week at a dose of 10 mg/kg. Anti-tumour activity was estimated by the inhibition of tumour volume, which was measured with caliper. Each point represents mean tumour volume calculated from 10 animals per experimental group. […] Antitumour activities were estimated by the inhibition of tumour volume, which was measured with caliper. Each point represents mean tumour volume calculated from 10 animals per experimental group. Tumour weights were measured after animals were sacrificed at the end of the treatment. […]

## O=c1[nH]cc(F)c(=O)[nH]1 [5-FU, 5-fluorouracil]
[1]
  Tumour weight as % of saline control: 52%
[2]
  Effect on tumour growth (volume and weight): ineffective in stabilization of the tumours; also recorded: tumours that were equal in volume and weight to tumours of saline-treated animals

## CN(C)/N=N/c1[nH]cnc1C(N)=O [DTIC, dacarbazine, reference compound]
[3]
  Tumour weight as % of saline control: 68%

## Nc1ccn([C@@H]2O[C@H](CO)[C@@H](O)C2(F)F)c(=O)n1 [Gemcitabine, reference compound]
[4]; BxPC-3 (pancreatic), Gemcitabine resistant, CD-1, SEQ ID NO:1 10 mg/kg i.v. every other day 17 times
  Tumour weight as % of saline control: 83%
[4]; BxPC-3 gemcitabine resistant, CD-1 nude mice, SEQ ID NO:1 10 mg/kg i.v. every other day
  Antitumour effect (tumour volume, FIG. 9): ineffective against Gemcitabine-resistant tumour
[2]
  Effect on tumour growth (volume and weight): ineffective in stabilization of the tumours; also recorded: at best, a delay in the rate of tumour growth
